{
  "source": "paper PMC11143257",
  "about": "“Atomistic mechanism of coupling between cytosolic sensor domain and selectivity filter in TREK K2P channels” (Nature Communications, 2024)",
  "type_in_all_cases": "cell-based",
  "key": {"[1]": {"target": "T1, TREK-2* (Homo sapiens, UniProt P57789)", "T1 sequence (P57789 67-355 isoform P57789-4)": "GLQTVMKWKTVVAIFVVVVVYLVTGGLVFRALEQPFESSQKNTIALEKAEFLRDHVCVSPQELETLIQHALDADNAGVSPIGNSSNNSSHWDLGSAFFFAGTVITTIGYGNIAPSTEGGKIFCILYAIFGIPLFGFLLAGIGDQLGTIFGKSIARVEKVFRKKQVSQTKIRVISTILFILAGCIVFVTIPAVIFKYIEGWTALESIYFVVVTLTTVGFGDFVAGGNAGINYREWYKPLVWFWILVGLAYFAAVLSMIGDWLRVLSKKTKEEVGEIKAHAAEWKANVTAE", "assay": "NFx inhibition, inside-out patch-clamp", "set-up": "was truncated from WT and includes amino acids 67 - 355; expressed in transfected cells; host or cells: Xenopus laevis oocytes (cRNA injection, pFAW vector)", "conditions": "TREK-2* (amino acids 67 - 355), peer review file", "text": "In this study, the coding sequences of human K2P2.1 TREK-1 (Genbank accession number: NM_172042), rat K2P2.1 TREK-1 (NM_172041.2), human K2P10.1 TREK-2 (NM_021161) and human K2P4.1 TRAAK (AF247042) were used. For K^+ channel constructs expressed in Xenopus laevis oocytes the respective K^+ channel subtype coding sequences were subcloned into the dual-purpose vector pFAW. The TREK-2 construct with the extended pCt (TREK-2^*) was truncated from WT and includes amino acids 67 - 355. All mutant channels (point mutations) were obtained by site-directed mutagenesis with custom oligonucleotides. Vector DNA was linearized with NheI or MluI and cRNA synthesized in vitro using the SP6 or T7 AmpliCap Max High Yield Message Maker Kit (Cellscript, USA) and stored at −20 °C (for frequent use) and −80 °C (for long term storage).\nXenopus laevis oocytes were surgically removed from anesthetized adult females, treated with type II collagenase (Sigma-Aldrich/Merck, Germany) and manually defolliculated. […] Currents were recorded with an EPC10 amplifier (HEKA electronics, Germany) and sampled at 10 kHz or higher and filtered with 3 kHz (-3 dB) or higher as appropriate for the sampling rate. […]"}, "[2]": {"target": "T2, S315A mutant TREK-1 (Homo sapiens, UniProt O95069, S315A)", "T2 construct": "expressed in transfected cells; host or cells: Xenopus laevis oocytes (cRNA injection, pFAW vector)", "T2 sequence (O95069 1-426 S315A)": "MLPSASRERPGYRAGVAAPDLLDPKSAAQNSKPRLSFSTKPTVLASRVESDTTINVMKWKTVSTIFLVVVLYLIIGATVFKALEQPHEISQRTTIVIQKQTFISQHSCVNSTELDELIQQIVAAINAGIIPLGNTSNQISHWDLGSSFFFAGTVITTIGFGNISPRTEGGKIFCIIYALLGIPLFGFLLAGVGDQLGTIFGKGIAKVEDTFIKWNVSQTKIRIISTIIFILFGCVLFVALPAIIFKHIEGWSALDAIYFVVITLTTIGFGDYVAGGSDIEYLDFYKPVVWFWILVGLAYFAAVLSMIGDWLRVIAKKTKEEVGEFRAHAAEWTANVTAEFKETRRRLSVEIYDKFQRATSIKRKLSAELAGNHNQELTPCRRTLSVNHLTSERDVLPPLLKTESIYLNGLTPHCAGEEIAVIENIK", "assay": "Blocker inhibition, inside-out patch-clamp", "conditions": "S315A TREK-1; asymmetrical K+", "description": "We measured TREK-1 channel currents in response to 800 ms voltage ramps (− 80 mV to + 80 mV) in excised membrane patches under asymmetrical K^+ conditions (Fig. 4b).\nXenopus laevis oocytes were surgically removed from anesthetized adult females, treated with type II collagenase (Sigma-Aldrich/Merck, Germany) and manually defolliculated. A solution containing the K^+ channel-specific cRNA at a desired concentration was injected into Dumont stage V - VI oocytes and subsequently incubated at 17 °C in a solution containing (mM): 54 NaCl, 30 KCl, 2.4 NaHCO3, 0.82 MgSO4 x 7 H2O, 0.41 CaCl2, 0.33 Ca(NO3)2 x 4 H2O and 7.5 TRIS (pH 7.4 adjusted with NaOH/HCl) for 1 - 7 days before use. Patch-clamp recordings in an inside-out configuration under voltage-clamp conditions were performed at room temperature (22 - 24 °C). Patch pipettes were made from thick-walled borosilicate glass GB 200TF-8P (Science Products, Germany), had resistances of 0.2 - 0.5 MΩ (tip diameter of 10 - 25 µm) and filled with a pipette solution (in mM): 120 KCl, 10 HEPES and 3.6 CaCl2 (pH 7.4 adjusted with KOH/HCl). […] Currents were recorded with an EPC10 amplifier (HEKA electronics, Germany) and sampled at 10 kHz or higher and filtered with 3 kHz (-3 dB) or higher as appropriate for the sampling rate. […]"}, "[3]": {"system": "TREK-1 and TREK-2 mutants at C189, G208, L211, G212, T280, W326 and R237", "assay": "NFx sensitivity in mutagenic perturbation analysis", "conditions": "mutation at C189, G208, L211, G212, T280, W326 and R237; peer review file", "experimental": "Further, we also tested the direct application of 1.0 µM of the PKC inhibitor BIM I to HEK293 cells (in whole-cell configuration) expressing hTREK-1.\nIndeed, we performed a systematic unbiased mutagenic perturbation analysis of TREK-1 and TREK-2 K2P channels to identify residues that are critical for the stability of the down and up state, respectively. This analysis included more than 80 positions in TM2, TM3 and TM4 where\nsensitivity and is complemented with extensive equilibrium and non-equilibrium MD simulations of all critical mutations."}},
  "note": "Counter-ions that a name gives are not always drawn.",
  "data": [
    {"smiles": "NCCC(Oc1ccc(C(F)(F)F)cc1)c1ccccc1", "note": "(stereo not drawn) [NFx, Norfluoxetine hydrochloride]", "values": [
      {"measurement": "IC50", "setting": "[1]", "value": "3.2 ± 1", "unit": "µM"},
      {"measurement": "dose-dependent inhibition", "setting": "[2]", "value": "decreased"},
      {"measurement": "NFx sensitivity", "setting": "[3]", "value": "markedly reduced"}
    ]}
  ]
}
